Laboratory results from ChEMBL document CHEMBL5241090, “A comprehensive overview of β-carbolines and its derivatives as anticancer agents” (Eur J Med Chem, 2021).
Values after ≈ are worked out from the molar mass of the structure shown.

Key:
[1] = test system: L1210; test: Cytotoxicity against mouse L1210 cells; assay type: functional, cell-based
[2] = test system: MOLT-4F; test: Cytotoxicity against human MOLT-4F cells; assay type: functional, cell-based
[3] = test system: MT4; test: Cytotoxicity against human MT4 cells; assay type: functional, cell-based
[4] = target: Serine/threonine-protein kinase haspin (Homo sapiens, UniProt Q8TF76); test: Inhibition of HASPIN (unknown origin)
[5] = target: Cyclin-dependent kinase 2/cyclin A (Homo sapiens, UniProt P24941); test: Inhibition of CDK2/Cyclin A (unknown origin); assay type: protein-complex assay
[6] = test system: RAW264.7; test: Cytotoxicity against mouse RAW264.7 cells; assay type: functional, cell-based
[7] = test system: HL-60; test: Cytotoxicity against human HL-60 cells; assay type: functional, cell-based; settings: Homo sapiens, HL-60; read-out: IC50
[8] = test system: A549; test: Cytotoxicity against human A549 cells; assay type: functional, cell-based
[9] = test system: HCT-116; test: Cytotoxicity against human HCT-116 cells; assay type: functional, cell-based
[10] = test system: NCI-H460; test: Cytotoxicity against human NCI-H460 cells; assay type: functional, cell-based
[11] = test system: BT-474; test: Cytotoxicity against human BT-474 cells; assay type: functional, cell-based
[12] = test system: MOLT-4; test: Cytotoxicity against human MOLT-4 cells; assay type: functional, cell-based
[13] = test system: THP-1; test: Cytotoxicity against human THP-1 cells; assay type: functional, cell-based
[14] = target: Serine/threonine-protein kinase PLK1 (Homo sapiens, UniProt P53350); test: Inhibition of PLK1 (unknown origin)
Serine/threonine-protein kinase PLK1, sequence (P53350 whole entry): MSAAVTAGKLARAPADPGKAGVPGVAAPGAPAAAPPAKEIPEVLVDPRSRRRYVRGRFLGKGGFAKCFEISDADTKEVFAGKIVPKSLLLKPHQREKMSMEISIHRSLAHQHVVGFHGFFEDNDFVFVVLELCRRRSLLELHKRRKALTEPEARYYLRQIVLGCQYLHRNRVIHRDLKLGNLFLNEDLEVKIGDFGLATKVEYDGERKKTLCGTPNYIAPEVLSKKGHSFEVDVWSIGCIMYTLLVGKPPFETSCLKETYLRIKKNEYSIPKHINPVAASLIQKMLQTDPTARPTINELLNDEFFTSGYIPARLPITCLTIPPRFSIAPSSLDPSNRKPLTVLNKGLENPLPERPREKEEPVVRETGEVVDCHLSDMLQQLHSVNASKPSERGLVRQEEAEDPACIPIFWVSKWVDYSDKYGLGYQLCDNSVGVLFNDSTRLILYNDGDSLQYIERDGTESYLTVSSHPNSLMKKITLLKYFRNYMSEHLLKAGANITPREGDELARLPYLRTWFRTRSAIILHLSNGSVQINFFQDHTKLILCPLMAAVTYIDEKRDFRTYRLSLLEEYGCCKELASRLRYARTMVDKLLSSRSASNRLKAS

Serine/threonine-protein kinase haspin, sequence (Q8TF76 whole entry): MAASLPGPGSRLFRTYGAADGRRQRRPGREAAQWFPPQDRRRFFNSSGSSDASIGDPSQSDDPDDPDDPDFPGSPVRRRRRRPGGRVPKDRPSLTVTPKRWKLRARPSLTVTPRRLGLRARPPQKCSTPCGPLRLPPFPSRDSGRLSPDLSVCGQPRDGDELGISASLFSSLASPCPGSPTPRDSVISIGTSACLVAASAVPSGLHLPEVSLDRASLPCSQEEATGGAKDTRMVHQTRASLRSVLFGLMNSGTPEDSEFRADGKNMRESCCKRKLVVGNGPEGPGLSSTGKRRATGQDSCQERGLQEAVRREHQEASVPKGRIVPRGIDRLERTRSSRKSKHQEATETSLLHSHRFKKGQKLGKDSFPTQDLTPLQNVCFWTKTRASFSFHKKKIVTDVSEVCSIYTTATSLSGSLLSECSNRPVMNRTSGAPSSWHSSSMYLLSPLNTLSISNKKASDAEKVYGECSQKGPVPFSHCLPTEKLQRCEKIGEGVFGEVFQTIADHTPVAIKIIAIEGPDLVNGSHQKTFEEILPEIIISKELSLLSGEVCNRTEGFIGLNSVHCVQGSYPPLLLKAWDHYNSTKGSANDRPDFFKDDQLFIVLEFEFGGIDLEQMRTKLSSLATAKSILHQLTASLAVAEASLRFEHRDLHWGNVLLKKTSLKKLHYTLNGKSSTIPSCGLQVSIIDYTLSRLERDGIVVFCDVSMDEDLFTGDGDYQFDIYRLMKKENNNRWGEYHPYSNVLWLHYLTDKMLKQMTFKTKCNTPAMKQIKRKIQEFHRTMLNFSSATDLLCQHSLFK

**Q.** With `COc1ccc2[nH]c3c(c2c1)CCN1OCSC[C@@H](N)C31` (some centres undefined) as the compound, how does the IC50 [1] read?
**A.** The IC50 was 5 ng/mL (≈ 0.0164 µM).

**Q.** And the IC50 [2]?
**A.** Its IC50 is 6.2 ng/mL (≈ 0.0203 µM).

**Q.** And the IC50 [3]?
**A.** Its IC50 is 5 ng/mL (≈ 0.0164 µM).

**Q.** With `Cc1nccc2c1[nH]c1cc(O)ccc12` as the compound, how does the IC50 [4] read?
**A.** The IC50 was 0.77 µM.

**Q.** `CCCC[n+]1ccc2c3ccccc3n(Cc3ccccc3)c2c1-c1ccccc1Cl` was tested. Which IC50 [5] did it give?
**A.** Its IC50 is 27 µM.

**Q.** For `CN1CCN(C(=O)[C@H]2Cc3c([nH]c4ccccc34)CN2Cc2ccc3ccccc3c2Br)CC1`, which IC50 [6] is on record?
**A.** The IC50 was 18 µM.

**Q.** `COc1ccc(-c2nc(C(=O)Nc3nc4ccc([N+](=O)[O-])cc4s3)cc3c2[nH]c2ccccc23)cc1` was tested. Which IC50 [7] did it give?
**A.** Its IC50 is 1.46 µM.

**Q.** And the IC50 [8]?
**A.** Its IC50 is 1.46 µM.

**Q.** And the IC50 [9]?
**A.** Its IC50 is 1.46 µM.

**Q.** And the IC50 [10]?
**A.** Its IC50 is 1.46 µM.

**Q.** What about the IC50 [11] of the same compound?
**A.** Its IC50 is 1.46 µM.

**Q.** What about the IC50 [12] of the same compound?
**A.** The IC50 was 1.46 µM.

**Q.** What about the IC50 [13] of the same compound?
**A.** The IC50 was 1.46 µM.

**Q.** With `COc1ccc2c3cc[n+](CCCc4ccccc4)c(C)c3n(Cc3cccc(Cl)c3)c2c1` as the compound, how does the IC50 [14] read?
**A.** The IC50 was 0.897 µM.
